Measured values reported in PubChem BioAssay (NCI).
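Compound exposure: 48 hours, 5 concentrations, 96-well plates. GI50 marks 50% less growth. Definition used: TGI = concentration required for complete inhibition of growth.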

Key:
Assay in all cases: inhibition of tumour cell growth, NCI panel, 48 h
SK-OV-3 ovarian = test system: SK-OV-3 ovarian
HCC-2998 colon = test system: HCC-2998 colon
NCI-H460 lung = test system: NCI-H460 lung
COLO 205 colon = test system: COLO 205 colon
HOP-92 NSCLC = test system: HOP-92 NSCLC
SN12C renal = test system: SN12C renal
OVCAR-3 ovarian = test system: OVCAR-3 ovarian
SK-MEL-28 melanoma = test system: SK-MEL-28 melanoma
HT29 colon = test system: HT29 colon
OVCAR-8 ovarian = test system: OVCAR-8 ovarian

Q: Which GI50 (SK-OV-3 ovarian) does the source give for `COc1cc2c(cc1OCCCOc1cc3c(cc1OC)C(=O)N1CC(F)(F)C[C@H]1C=N3)N=C[C@@H]1CC(F)(F)CN1C2=O` here?
A: The GI50 was 1020 nM.

Q: And the TGI (SK-OV-3 ovarian)?
A: Its TGI is over 30.3 µM.

Q: And the GI50 (HCC-2998 colon)?
A: The GI50 was 1370 nM.

Q: What about the TGI (HCC-2998 colon) of the same molecule?
A: The TGI was 3.45 µM.

Q: And the GI50 (NCI-H460 lung)?
A: Its GI50 is 0.0551 µM.

Q: And the TGI (NCI-H460 lung)?
A: The TGI was 2.45 µM.

Q: And the GI50 (COLO 205 colon)?
A: The GI50 was 814 nM.

Q: What about the TGI (COLO 205 colon) of the same molecule?
A: The TGI was 2.49 µM.

Q: What about the GI50 (HOP-92 NSCLC) of the same molecule?
A: The GI50 was 0.336 µM.

Q: What about the TGI (HOP-92 NSCLC) of the same molecule?
A: The TGI was 7.73 µM.

Q: What about the GI50 (SN12C renal) of the same molecule?
A: Its GI50 is 269 nM.

Q: And the TGI (SN12C renal)?
A: Its TGI is over 37.2 µM.

Q: And the GI50 (OVCAR-3 ovarian)?
A: The GI50 was 420 nM.

Q: What about the TGI (OVCAR-3 ovarian) of the same molecule?
A: The TGI was 6.99 µM.

Q: And the GI50 (SK-MEL-28 melanoma)?
A: The GI50 was 1950 nM.

Q: And the TGI (SK-MEL-28 melanoma)?
A: Its TGI is 5.47 µM.

Q: And the GI50 (HT29 colon)?
A: The GI50 was 641 nM.

Q: What about the TGI (HT29 colon) of the same molecule?
A: Its TGI is 13 µM.

Q: What about the GI50 (OVCAR-8 ovarian) of the same molecule?
A: Its GI50 is 899 nM.

Q: And the TGI (OVCAR-8 ovarian)?
A: The TGI was 9.16 µM.

Q: What does the source list for `NCc1ccc(O)c(O)c1O`?
A: TGI (SK-OV-3 ovarian): > 100 µM; TGI (HCC-2998 colon): > 81.7 µM; TGI (NCI-H460 lung): 34 µM; TGI (COLO 205 colon): 35.5 µM; TGI (HOP-92 NSCLC): > 96 µM; TGI (SN12C renal): 37.3 µM; TGI (OVCAR-3 ovarian): 47 µM; TGI (SK-MEL-28 melanoma): > 100 µM; TGI (HT29 colon): 29.2 µM; TGI (OVCAR-8 ovarian): 49.1 µM

Q: For `CN(C)C=O.CN(C)C=O.CN1C(C(=O)Nc2ccccn2)=C([O-])c2ccccc2S1(=O)=O.CN1C(C(=O)Nc2ccccn2)=C([O-])c2ccccc2S1(=O)=O.[Cu+2]`, which TGI (SK-OV-3 ovarian) is on record?
A: Its TGI is 45.8 µM.

Q: What about the GI50 (HCC-2998 colon) of the same molecule?
A: Its GI50 is over 100000 nM.

Q: What about the TGI (HCC-2998 colon) of the same molecule?
A: The TGI was over 100 µM.

Q: What about the GI50 (NCI-H460 lung) of the same molecule?
A: Its GI50 is 32.5 µM.

Q: What about the TGI (NCI-H460 lung) of the same molecule?
A: Its TGI is over 100 µM.

Q: What about the TGI (COLO 205 colon) of the same molecule?
A: Its TGI is over 100 µM.

Q: And the GI50 (HOP-92 NSCLC)?
A: Its GI50 is 22.1 µM.

Q: What about the TGI (HOP-92 NSCLC) of the same molecule?
A: The TGI was 51.1 µM.

Q: What about the TGI (SN12C renal) of the same molecule?
A: The TGI was over 100 µM.

Q: And the TGI (OVCAR-3 ovarian)?
A: The TGI was over 100 µM.

Q: What about the TGI (SK-MEL-28 melanoma) of the same molecule?
A: Its TGI is over 100 µM.

Q: What about the TGI (HT29 colon) of the same molecule?
A: The TGI was over 100 µM.

Q: And the TGI (OVCAR-8 ovarian)?
A: Its TGI is over 100 µM.

Q: What does the source list for `CCc1cc(C)cc2[n+]1CC=C2C`?
A: TGI (HCC-2998 colon): > 100 µM; TGI (NCI-H460 lung): > 100 µM; TGI (COLO 205 colon): > 100 µM; TGI (HOP-92 NSCLC): > 100 µM; TGI (SN12C renal): > 100 µM; TGI (OVCAR-3 ovarian): > 100 µM; TGI (SK-MEL-28 melanoma): > 100 µM; TGI (HT29 colon): > 100 µM; TGI (OVCAR-8 ovarian): > 100 µM

Q: How did the TGI (SK-OV-3 ovarian) turn out when `Cn1ncc2c(=O)[nH]c(-c3ccccc3)nc21` was run?
A: The TGI was over 100 µM.

Q: What about the TGI (HCC-2998 colon) of the same molecule?
A: Its TGI is over 100 µM.

Q: And the TGI (COLO 205 colon)?
A: Its TGI is over 100 µM.

Q: What about the TGI (SN12C renal) of the same molecule?
A: The TGI was over 100 µM.

Q: And the TGI (SK-MEL-28 melanoma)?
A: Its TGI is over 100 µM.

Q: And the TGI (HT29 colon)?
A: Its TGI is over 100 µM.

Q: And the TGI (OVCAR-8 ovarian)?
A: Its TGI is over 100 µM.

Q: `O=C(O)\C=C/C=C/C=C/C=C/C(=O)O` was tested. Which TGI (SK-OV-3 ovarian) did it give?
A: Its TGI is over 100 µM.

Q: What about the TGI (HCC-2998 colon) of the same molecule?
A: The TGI was over 100 µM.

Q: What about the TGI (NCI-H460 lung) of the same molecule?
A: The TGI was over 100 µM.

Q: What about the TGI (COLO 205 colon) of the same molecule?
A: Its TGI is over 100 µM.

Q: And the TGI (SN12C renal)?
A: Its TGI is over 100 µM.

Q: And the TGI (OVCAR-3 ovarian)?
A: The TGI was over 100 µM.

Q: And the TGI (SK-MEL-28 melanoma)?
A: Its TGI is over 100 µM.

Q: And the TGI (HT29 colon)?
A: The TGI was over 100 µM.

Q: And the TGI (OVCAR-8 ovarian)?
A: The TGI was over 100 µM.

Q: With `NC(CCCNc1ccc(O)cc1)C(=O)O` (stereo unspecified) as the molecule, how does the TGI (SK-OV-3 ovarian) read?
A: Its TGI is over 100 µM.

Q: What about the TGI (HCC-2998 colon) of the same molecule?
A: The TGI was over 100 µM.

Q: And the TGI (NCI-H460 lung)?
A: Its TGI is over 100 µM.

Q: And the TGI (COLO 205 colon)?
A: Its TGI is over 90.3 µM.

Q: What about the TGI (HOP-92 NSCLC) of the same molecule?
A: Its TGI is 63.3 µM.

Q: What about the TGI (SN12C renal) of the same molecule?
A: Its TGI is over 70.6 µM.

Q: What about the TGI (OVCAR-3 ovarian) of the same molecule?
A: The TGI was 35 µM.

Q: And the TGI (SK-MEL-28 melanoma)?
A: The TGI was over 100 µM.

Q: And the TGI (HT29 colon)?
A: Its TGI is over 100 µM.

Q: What about the TGI (OVCAR-8 ovarian) of the same molecule?
A: The TGI was over 62.2 µM.

Q: `CC(C)C(C)C(O)C(O)C(C)C1CCC2C3COC(=O)C4CC(O)C(O)CC4(C)C3CCC12C` (stereo unspecified) was tested. Which TGI (SK-OV-3 ovarian) did it give?
A: The TGI was over 100 µM.

Q: What about the TGI (HCC-2998 colon) of the same molecule?
A: The TGI was over 100 µM.

Q: And the TGI (NCI-H460 lung)?
A: The TGI was over 100 µM.

Q: What about the TGI (COLO 205 colon) of the same molecule?
A: Its TGI is over 100 µM.

Q: And the TGI (HOP-92 NSCLC)?
A: Its TGI is over 100 µM.

Q: What about the TGI (SN12C renal) of the same molecule?
A: The TGI was over 100 µM.

Q: What about the TGI (SK-MEL-28 melanoma) of the same molecule?
A: The TGI was over 100 µM.

Q: What about the TGI (HT29 colon) of the same molecule?
A: The TGI was over 100 µM.

Q: What about the TGI (OVCAR-8 ovarian) of the same molecule?
A: The TGI was over 100 µM.

Q: With `CC1(C)CCCC2(C)C3=C(CCC12)C(=O)OC3` (stereo unspecified) as the molecule, how does the TGI (SK-OV-3 ovarian) read?
A: The TGI was over 100 µM.

Q: And the TGI (HCC-2998 colon)?
A: Its TGI is over 100 µM.

Q: And the TGI (COLO 205 colon)?
A: The TGI was over 100 µM.

Q: And the TGI (HOP-92 NSCLC)?
A: The TGI was over 100 µM.

Q: And the TGI (SN12C renal)?
A: Its TGI is over 100 µM.

Q: And the TGI (OVCAR-3 ovarian)?
A: The TGI was over 100 µM.

Q: What about the TGI (SK-MEL-28 melanoma) of the same molecule?
A: The TGI was over 100 µM.

Q: What about the TGI (HT29 colon) of the same molecule?
A: Its TGI is over 100 µM.

Q: What about the TGI (OVCAR-8 ovarian) of the same molecule?
A: The TGI was over 100 µM.

Q: Which TGI (SK-OV-3 ovarian) does the source give for `COC(=O)C12OCC34C(CC5C(C)C6=CC(=O)OC6=CC5(C)C3C(O)C1O)OC(=O)C(OC(C)=O)C24` (stereo unspecified) here?
A: The TGI was 79.4 µM.

Q: And the TGI (HCC-2998 colon)?
A: Its TGI is 30 µM.

Q: What about the TGI (NCI-H460 lung) of the same molecule?
A: The TGI was 51.8 µM.

Q: What about the TGI (COLO 205 colon) of the same molecule?
A: Its TGI is 22.6 µM.

Q: What about the TGI (HOP-92 NSCLC) of the same molecule?
A: Its TGI is 35.2 µM.

Q: And the TGI (SN12C renal)?
A: Its TGI is 39.9 µM.

Q: And the TGI (OVCAR-3 ovarian)?
A: The TGI was 29.4 µM.

Q: What about the TGI (SK-MEL-28 melanoma) of the same molecule?
A: Its TGI is 30.1 µM.

Q: And the TGI (HT29 colon)?
A: Its TGI is 33.9 µM.

Q: What about the TGI (OVCAR-8 ovarian) of the same molecule?
A: Its TGI is 34.1 µM.
